{
  "source": "ChEMBL document CHEMBL4804286",
  "about": "“3-amino-4-(4-(4 (dimethylcarbamoyl) phenyl)-1,4-diazepan-1-yl) thieno [2,3-b] pyridine-2-carboxamide for use in cancer therapy and formulations comprising the same” (2020)",
  "key": {"[1]": {"test_system": "Fibroblast growth factor receptor 3 (Homo sapiens), P22607 [G697C]", "assay": "Inhibition of human FGFR3 G697C mutant assessed as percent of control at 2000 nM by KINOMEscan assay relative to control", "set-up": "scale not given: the % may be the effect or the level left"}, "[2]": {"molecular_target": "Glycogen synthase kinase-3 beta (Homo sapiens) (UniProt P49841)", "sequence (P49841 whole entry, looked up)": "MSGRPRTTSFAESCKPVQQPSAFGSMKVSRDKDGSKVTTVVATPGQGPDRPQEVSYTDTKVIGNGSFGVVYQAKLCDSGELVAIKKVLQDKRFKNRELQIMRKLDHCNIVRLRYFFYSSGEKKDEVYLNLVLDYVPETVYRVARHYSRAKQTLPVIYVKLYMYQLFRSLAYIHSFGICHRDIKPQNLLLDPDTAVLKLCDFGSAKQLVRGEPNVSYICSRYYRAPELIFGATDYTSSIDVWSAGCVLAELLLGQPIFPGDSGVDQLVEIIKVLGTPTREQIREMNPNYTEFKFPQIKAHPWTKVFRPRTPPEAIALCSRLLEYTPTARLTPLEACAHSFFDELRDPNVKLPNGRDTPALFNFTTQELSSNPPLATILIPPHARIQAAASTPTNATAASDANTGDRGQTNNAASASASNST", "assay": "Inhibition of human GSK3B assessed as percent of control at 2000 nM by KINOMEscan assay relative to control", "set-up": "scale not given: the % may be the effect or the level left"}, "[3]": {"molecular_target": "Serine/threonine-protein kinase DCLK1 (Homo sapiens) (UniProt O15075)", "sequence (O15075 whole entry)": "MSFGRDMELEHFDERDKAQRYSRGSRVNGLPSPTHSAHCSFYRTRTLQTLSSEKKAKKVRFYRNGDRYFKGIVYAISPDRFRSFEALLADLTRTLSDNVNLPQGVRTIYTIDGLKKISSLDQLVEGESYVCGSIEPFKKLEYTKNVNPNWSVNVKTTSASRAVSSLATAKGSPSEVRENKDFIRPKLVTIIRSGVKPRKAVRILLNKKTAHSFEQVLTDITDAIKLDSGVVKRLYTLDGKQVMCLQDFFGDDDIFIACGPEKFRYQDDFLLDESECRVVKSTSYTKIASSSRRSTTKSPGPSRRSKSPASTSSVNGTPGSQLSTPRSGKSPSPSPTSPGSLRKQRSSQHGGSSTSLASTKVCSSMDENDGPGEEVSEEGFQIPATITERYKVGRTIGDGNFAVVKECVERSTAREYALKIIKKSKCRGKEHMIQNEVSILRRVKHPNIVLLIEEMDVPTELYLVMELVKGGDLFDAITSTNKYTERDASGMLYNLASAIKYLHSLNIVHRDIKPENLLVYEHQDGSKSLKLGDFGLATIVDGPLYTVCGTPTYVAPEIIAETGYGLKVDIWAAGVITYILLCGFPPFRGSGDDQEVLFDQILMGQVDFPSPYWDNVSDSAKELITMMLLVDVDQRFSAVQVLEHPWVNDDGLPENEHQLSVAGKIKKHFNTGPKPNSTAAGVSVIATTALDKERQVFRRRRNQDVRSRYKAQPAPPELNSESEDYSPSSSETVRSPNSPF", "assay": "Inhibition of human DCAMKL1 assessed as percent of control at 2000 nM by KINOMEscan assay relative to control", "set-up": "scale not given: the % may be the effect or the level left"}, "[4]": {"molecular_target": "Interleukin-1 receptor-associated kinase 1 (Homo sapiens) (UniProt P51617)", "assay": "Inhibition of human IRAK1 assessed as percent of control at 2000 nM by KINOMEscan assay relative to control", "set-up": "scale not given: the % may be the effect or the level left"}, "[5]": {"molecular_target": "Ephrin type-B receptor 3 (Homo sapiens) (UniProt P54753)", "assay": "Inhibition of human EPHB3 assessed as percent of control at 2000 nM by KINOMEscan assay relative to control", "set-up": "scale not given: the % may be the effect or the level left"}, "[6]": {"test_system": "Epidermal growth factor receptor (Homo sapiens), P00533 [L858R]", "assay": "Inhibition of human EGFR L858R mutant assessed as percent of control at 2000 nM by KINOMEscan assay relative to control", "set-up": "scale not given: the % may be the effect or the level left"}, "[7]": {"molecular_target": "Receptor-interacting serine/threonine-protein kinase 1 (Homo sapiens) (UniProt Q13546)", "assay": "Inhibition of human RIPK1 assessed as percent of control at 2000 nM by KINOMEscan assay relative to control", "set-up": "scale not given: the % may be the effect or the level left"}, "[8]": {"molecular_target": "Serine/threonine-protein kinase B-raf (Homo sapiens) (UniProt P15056)", "assay": "Inhibition of human BRAF assessed as percent of control at 2000 nM by KINOMEscan assay relative to control", "set-up": "scale not given: the % may be the effect or the level left"}, "[9]": {"molecular_target": "MAP kinase-activated protein kinase 2 (Homo sapiens) (UniProt P49137)", "sequence (P49137 whole entry, looked up)": "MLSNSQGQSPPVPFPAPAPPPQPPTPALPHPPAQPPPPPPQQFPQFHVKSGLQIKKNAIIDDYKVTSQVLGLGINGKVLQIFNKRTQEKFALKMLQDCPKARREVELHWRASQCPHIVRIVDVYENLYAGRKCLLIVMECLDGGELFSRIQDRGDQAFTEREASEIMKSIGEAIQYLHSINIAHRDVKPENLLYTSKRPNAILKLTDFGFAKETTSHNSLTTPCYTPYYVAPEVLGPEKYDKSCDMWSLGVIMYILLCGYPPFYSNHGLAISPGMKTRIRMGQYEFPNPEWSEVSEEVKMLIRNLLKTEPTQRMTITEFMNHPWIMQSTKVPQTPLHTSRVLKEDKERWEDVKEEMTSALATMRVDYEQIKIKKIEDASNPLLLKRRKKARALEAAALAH", "assay": "Inhibition of human MAPKAPK2 assessed as percent of control at 2000 nM by KINOMEscan assay relative to control", "set-up": "scale not given: the % may be the effect or the level left"}, "[10]": {"molecular_target": "Receptor-type tyrosine-protein kinase FLT3 (Homo sapiens) (UniProt P36888)", "assay": "Inhibition of human FLT3 assessed as percent of control at 2000 nM by KINOMEscan assay relative to control", "set-up": "scale not given: the % may be the effect or the level left"}, "[11]": {"molecular_target": "Phosphatidylinositol 4-phosphate 3-kinase C2 domain-containing subunit beta (Homo sapiens) (UniProt O00750)", "sequence (O00750 whole entry, the tested form may be a part)": "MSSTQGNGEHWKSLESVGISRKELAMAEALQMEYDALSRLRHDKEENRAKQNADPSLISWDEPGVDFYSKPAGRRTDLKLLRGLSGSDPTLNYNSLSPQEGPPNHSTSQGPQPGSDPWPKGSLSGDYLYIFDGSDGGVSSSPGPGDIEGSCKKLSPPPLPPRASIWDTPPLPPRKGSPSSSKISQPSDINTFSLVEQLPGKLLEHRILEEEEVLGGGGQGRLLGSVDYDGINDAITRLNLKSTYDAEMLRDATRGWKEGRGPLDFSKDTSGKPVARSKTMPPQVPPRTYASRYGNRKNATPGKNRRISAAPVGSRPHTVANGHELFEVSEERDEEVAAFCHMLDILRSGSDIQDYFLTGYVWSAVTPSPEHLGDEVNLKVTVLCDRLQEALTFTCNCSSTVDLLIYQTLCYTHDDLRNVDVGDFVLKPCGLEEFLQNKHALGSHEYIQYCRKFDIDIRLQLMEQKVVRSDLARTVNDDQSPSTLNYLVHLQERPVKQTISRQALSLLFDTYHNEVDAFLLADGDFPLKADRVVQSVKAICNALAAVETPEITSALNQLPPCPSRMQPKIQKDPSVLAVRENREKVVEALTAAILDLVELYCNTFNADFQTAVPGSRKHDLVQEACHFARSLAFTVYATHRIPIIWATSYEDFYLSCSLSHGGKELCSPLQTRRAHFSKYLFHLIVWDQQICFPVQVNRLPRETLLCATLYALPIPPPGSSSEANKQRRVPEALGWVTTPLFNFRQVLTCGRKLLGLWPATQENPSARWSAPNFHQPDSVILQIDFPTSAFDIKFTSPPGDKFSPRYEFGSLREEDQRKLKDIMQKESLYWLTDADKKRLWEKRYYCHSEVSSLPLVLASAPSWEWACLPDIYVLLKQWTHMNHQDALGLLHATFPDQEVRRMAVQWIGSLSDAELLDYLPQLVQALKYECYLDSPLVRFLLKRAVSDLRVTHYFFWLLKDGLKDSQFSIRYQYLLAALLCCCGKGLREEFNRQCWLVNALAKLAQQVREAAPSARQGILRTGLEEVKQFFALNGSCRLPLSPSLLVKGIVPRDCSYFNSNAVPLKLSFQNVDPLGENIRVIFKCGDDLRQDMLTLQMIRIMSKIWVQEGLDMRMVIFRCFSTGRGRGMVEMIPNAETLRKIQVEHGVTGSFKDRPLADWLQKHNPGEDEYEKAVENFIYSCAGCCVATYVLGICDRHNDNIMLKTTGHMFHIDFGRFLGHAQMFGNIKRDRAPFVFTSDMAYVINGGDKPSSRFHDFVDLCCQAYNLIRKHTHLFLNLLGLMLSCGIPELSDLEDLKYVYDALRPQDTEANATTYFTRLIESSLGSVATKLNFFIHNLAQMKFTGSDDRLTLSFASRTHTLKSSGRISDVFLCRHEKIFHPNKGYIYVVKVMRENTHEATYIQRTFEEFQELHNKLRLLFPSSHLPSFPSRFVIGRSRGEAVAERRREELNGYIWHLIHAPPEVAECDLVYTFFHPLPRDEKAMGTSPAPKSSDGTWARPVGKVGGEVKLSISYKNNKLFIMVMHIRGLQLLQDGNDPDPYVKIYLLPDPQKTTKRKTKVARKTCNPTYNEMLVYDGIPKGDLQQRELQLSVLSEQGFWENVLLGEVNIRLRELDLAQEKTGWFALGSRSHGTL", "assay": "Inhibition of human PIK3CB assessed as percent of control at 2000 nM by KINOMEscan assay relative to control", "set-up": "scale not given: the % may be the effect or the level left"}, "[12]": {"molecular_target": "Cyclin-dependent kinase 18 (Homo sapiens) (UniProt Q07002)", "sequence (Q07002 whole entry)": "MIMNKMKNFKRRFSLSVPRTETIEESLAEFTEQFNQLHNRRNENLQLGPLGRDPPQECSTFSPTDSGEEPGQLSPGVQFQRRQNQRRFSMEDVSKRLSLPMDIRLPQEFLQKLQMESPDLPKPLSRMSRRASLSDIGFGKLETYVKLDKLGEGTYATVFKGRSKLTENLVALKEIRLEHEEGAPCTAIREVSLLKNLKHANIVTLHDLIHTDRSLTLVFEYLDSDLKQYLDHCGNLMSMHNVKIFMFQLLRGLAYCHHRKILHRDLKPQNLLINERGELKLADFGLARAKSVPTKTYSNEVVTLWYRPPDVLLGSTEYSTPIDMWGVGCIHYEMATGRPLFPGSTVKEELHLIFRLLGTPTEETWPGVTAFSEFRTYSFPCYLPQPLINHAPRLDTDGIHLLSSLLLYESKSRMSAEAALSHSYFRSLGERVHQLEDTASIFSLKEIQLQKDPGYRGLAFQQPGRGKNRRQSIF", "assay": "Inhibition of human PCTK3 assessed as percent of control at 2000 nM by KINOMEscan assay relative to control", "set-up": "scale not given: the % may be the effect or the level left"}, "[13]": {"molecular_target": "Ephrin type-A receptor 3 (Homo sapiens) (UniProt P29320)", "assay": "Inhibition of human EPHA3 assessed as percent of control at 2000 nM by KINOMEscan assay relative to control", "set-up": "scale not given: the % may be the effect or the level left"}, "[14]": {"molecular_target": "Serine/threonine-protein kinase PknB (Mycobacterium tuberculosis) (UniProt P9WI81)", "sequence (P9WI81 whole entry)": "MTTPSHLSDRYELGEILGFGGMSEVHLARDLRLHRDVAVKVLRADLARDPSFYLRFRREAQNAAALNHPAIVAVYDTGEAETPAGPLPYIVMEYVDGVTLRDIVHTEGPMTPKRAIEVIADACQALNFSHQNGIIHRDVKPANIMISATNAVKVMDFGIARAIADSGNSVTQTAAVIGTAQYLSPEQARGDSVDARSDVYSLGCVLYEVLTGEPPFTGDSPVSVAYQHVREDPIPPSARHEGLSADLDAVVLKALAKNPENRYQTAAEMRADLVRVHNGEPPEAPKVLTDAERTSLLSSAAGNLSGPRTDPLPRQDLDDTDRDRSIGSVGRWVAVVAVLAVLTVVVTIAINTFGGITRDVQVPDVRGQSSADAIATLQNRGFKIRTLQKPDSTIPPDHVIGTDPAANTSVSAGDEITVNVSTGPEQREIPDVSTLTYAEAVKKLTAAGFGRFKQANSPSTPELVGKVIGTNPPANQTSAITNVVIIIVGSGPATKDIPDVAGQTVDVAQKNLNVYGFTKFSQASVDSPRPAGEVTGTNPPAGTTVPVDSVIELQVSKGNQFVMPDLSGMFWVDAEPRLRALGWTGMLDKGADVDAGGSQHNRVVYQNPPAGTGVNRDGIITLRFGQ", "assay": "Inhibition of Mycobacterium tuberculosis PKNB assessed as percent of control at 2000 nM by KINOMEscan assay relative to control", "set-up": "scale not given: the % may be the effect or the level left"}, "[15]": {"molecular_target": "Mitogen-activated protein kinase kinase kinase 10 (Homo sapiens) (UniProt Q02779)", "assay": "Inhibition of human MLK2 assessed as percent of control at 2000 nM by KINOMEscan assay relative to control", "set-up": "scale not given: the % may be the effect or the level left"}, "[16]": {"molecular_target": "Leukocyte tyrosine kinase receptor (Homo sapiens) (UniProt P29376)", "assay": "Inhibition of human LTK assessed as percent of control at 2000 nM by KINOMEscan assay relative to control", "set-up": "scale not given: the % may be the effect or the level left"}, "[17]": {"molecular_target": "Calcium/calmodulin-dependent protein kinase type 1 (Homo sapiens) (UniProt Q14012)", "assay": "Inhibition of human CAMK1 assessed as percent of control at 2000 nM by KINOMEscan assay relative to control", "set-up": "scale not given: the % may be the effect or the level left"}, "[18]": {"molecular_target": "Rhodopsin kinase GRK1 (Homo sapiens) (UniProt Q15835)", "assay": "Inhibition of human GRK1 assessed as percent of control at 2000 nM by KINOMEscan assay relative to control", "set-up": "scale not given: the % may be the effect or the level left"}, "[19]": {"molecular_target": "Interleukin-1 receptor-associated kinase 4 (Homo sapiens) (UniProt Q9NWZ3)", "assay": "Inhibition of human IRAK4 assessed as percent of control at 2000 nM by KINOMEscan assay relative to control", "set-up": "scale not given: the % may be the effect or the level left"}, "[20]": {"molecular_target": "Eukaryotic translation initiation factor 2-alpha kinase 1 (Homo sapiens) (UniProt Q9BQI3)", "assay": "Inhibition of human EIF2AK1 assessed as percent of control at 2000 nM by KINOMEscan assay relative to control", "set-up": "scale not given: the % may be the effect or the level left"}, "Myc-CaP [21]": {"test_system": "Myc-CaP", "assay": "Antiproliferative activity against murine castration-resistant Myc-CaP cells at 1 uM assessed as growth inhibition in presence of 5 uM enzalutamide relative to control", "format": "functional", "conditions": "Mus musculus"}, "[22]": {"test_system": "Epidermal growth factor receptor (Homo sapiens), P00533 [UNDEFINED MUTATION]", "assay": "Inhibition of human EGFR L747-S752del/P753S double mutant assessed as percent of control at 2000 nM by KINOMEscan assay relative to control", "set-up": "scale not given: the % may be the effect or the level left"}, "Myc-CaP [23]": {"test_system": "Myc-CaP", "assay": "Antitumor activity against murine castration-resistant Myc-CaP cells xenografted in male FVB mouse assessed as suppression of tumor weight", "format": "functional"}, "[24]": {"molecular_target": "Dual specificity protein kinase CLK2 (Homo sapiens) (UniProt P49760)", "assay": "Inhibition of human CLK2 assessed as percent of control at 2000 nM by KINOMEscan assay relative to control", "set-up": "scale not given: the % may be the effect or the level left"}, "[25]": {"molecular_target": "Tyrosine-protein kinase FRK (Homo sapiens) (UniProt P42685)", "assay": "Inhibition of human FRK assessed as percent of control at 2000 nM by KINOMEscan assay relative to control", "set-up": "scale not given: the % may be the effect or the level left"}, "[26]": {"molecular_target": "Serine/threonine-protein kinase 24 (Homo sapiens) (UniProt Q9Y6E0)", "assay": "Inhibition of human MST3 assessed as percent of control at 2000 nM by KINOMEscan assay relative to control", "set-up": "scale not given: the % may be the effect or the level left"}, "[27]": {"molecular_target": "Protein-tyrosine kinase 2-beta (Homo sapiens) (UniProt Q14289)", "assay": "Inhibition of human PYK2 assessed as percent of control at 2000 nM by KINOMEscan assay relative to control", "set-up": "scale not given: the % may be the effect or the level left"}, "[28]": {"molecular_target": "Serine/threonine-protein kinase MARK1 (Homo sapiens) (UniProt Q9P0L2)", "assay": "Inhibition of human MARK1 assessed as percent of control at 2000 nM by KINOMEscan assay relative to control", "set-up": "scale not given: the % may be the effect or the level left"}, "[29]": {"test_system": "Receptor-type tyrosine-protein kinase FLT3 (Homo sapiens), P36888 [K663Q]", "assay": "Inhibition of human FLT3 K663Q mutant assessed as percent of control at 2000 nM by KINOMEscan assay relative to control", "set-up": "scale not given: the % may be the effect or the level left"}, "[30]": {"molecular_target": "NUAK family SNF1-like kinase 1 (Homo sapiens) (UniProt O60285)", "sequence (O60285 whole entry)": "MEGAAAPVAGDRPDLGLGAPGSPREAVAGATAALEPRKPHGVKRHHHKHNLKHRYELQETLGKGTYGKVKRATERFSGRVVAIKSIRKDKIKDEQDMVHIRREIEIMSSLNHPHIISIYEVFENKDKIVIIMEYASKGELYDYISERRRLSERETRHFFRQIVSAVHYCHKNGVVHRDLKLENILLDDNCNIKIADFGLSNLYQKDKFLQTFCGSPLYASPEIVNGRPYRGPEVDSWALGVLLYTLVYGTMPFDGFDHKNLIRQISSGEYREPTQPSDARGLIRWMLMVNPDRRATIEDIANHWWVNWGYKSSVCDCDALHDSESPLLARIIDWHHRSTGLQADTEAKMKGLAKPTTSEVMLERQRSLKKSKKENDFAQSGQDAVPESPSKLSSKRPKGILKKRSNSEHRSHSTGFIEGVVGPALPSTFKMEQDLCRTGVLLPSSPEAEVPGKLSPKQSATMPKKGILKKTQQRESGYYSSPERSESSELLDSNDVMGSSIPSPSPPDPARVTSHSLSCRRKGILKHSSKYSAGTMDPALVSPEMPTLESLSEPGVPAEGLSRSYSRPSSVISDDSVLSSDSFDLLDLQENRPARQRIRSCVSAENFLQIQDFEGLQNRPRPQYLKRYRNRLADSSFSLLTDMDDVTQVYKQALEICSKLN", "assay": "Inhibition of human ARK5 assessed as percent of control at 2000 nM by KINOMEscan assay relative to control", "set-up": "scale not given: the % may be the effect or the level left"}, "[31]": {"molecular_target": "Casein kinase I isoform epsilon (Homo sapiens) (UniProt P49674)", "conditions": "INHIBITOR, dose 2000.0 nM", "description": "Inhibition of human CSNK1E at 2000 nM by KINOMEscan assay"}, "[32]": {"test_system": "Epidermal growth factor receptor (Homo sapiens), P00533 [UNDEFINED MUTATION]", "assay": "Inhibition of human EGFR L747-E749del/A750P double mutant assessed as percent of control at 2000 nM by KINOMEscan assay relative to control", "set-up": "scale not given: the % may be the effect or the level left"}},
  "note": "“And” between values parts separate entries of the source, which are not always exact repeats. Identical values can stand only once. The source made the active and inactive calls. The calls are words filed in the database; no cut-off is given here.",
  "data": [
    {"smiles": "CN(C)C(=O)c1ccc(N2CCCN(c3ccnc4sc(C(N)=O)c(N)c34)CC2)cc1", "values": [
      {"measurement": "Activity", "setting": "[1]", "value": "95% and 100%"},
      {"measurement": "Activity", "setting": "[2]", "value": "79% and 77%"},
      {"measurement": "Activity", "setting": "[3]", "value": "100% and 89%"},
      {"measurement": "Activity", "setting": "[4]", "value": "94% and 84%"},
      {"measurement": "Activity", "setting": "[5]", "value": "96% and 94%"},
      {"measurement": "Activity", "setting": "[6]", "value": "99% and 93%"},
      {"measurement": "Activity", "setting": "[7]", "value": "99% and 100%"},
      {"measurement": "Activity", "setting": "[8]", "value": "100% and 96%"},
      {"measurement": "Activity", "setting": "[9]", "value": "91% and 99%"},
      {"measurement": "Activity", "setting": "[10]", "value": "94% and 86%"},
      {"measurement": "Activity", "setting": "[11]", "value": "100% and 95%"},
      {"measurement": "Activity", "setting": "[12]", "value": 100, "unit": "%"},
      {"measurement": "Activity", "setting": "[13]", "value": "100% and 87%"},
      {"measurement": "Activity", "setting": "[14]", "value": "100% and 90%"},
      {"measurement": "Activity", "setting": "[15]", "value": "100% and 95%"},
      {"measurement": "Activity", "setting": "[16]", "value": "90% and 77%"},
      {"measurement": "Activity", "setting": "[17]", "value": "83% and 95%"},
      {"measurement": "Activity", "setting": "[18]", "value": "98% and 81%"},
      {"measurement": "Activity", "setting": "[19]", "value": "89% and 78%"},
      {"measurement": "Activity", "setting": "[20]", "value": "93% and 78%"},
      {"measurement": "Activity", "setting": "Myc-CaP [21]", "value": "Active"},
      {"measurement": "Activity", "setting": "[22]", "value": "99% and 100%"},
      {"measurement": "Activity", "setting": "Myc-CaP [23]", "value": "Active"},
      {"measurement": "Activity", "setting": "[24]", "value": "75% and 83%"},
      {"measurement": "Activity", "setting": "[25]", "value": "100% and 97%"},
      {"measurement": "Activity", "setting": "[26]", "value": "97% and 84%"},
      {"measurement": "Activity", "setting": "[27]", "value": "97% and 84%"},
      {"measurement": "Activity", "setting": "[28]", "value": 100, "unit": "%"},
      {"measurement": "Activity", "setting": "[29]", "value": "96% and 91%"},
      {"measurement": "Activity", "setting": "[30]", "value": "57% and 77%"},
      {"measurement": "inhibition", "setting": "[31]", "value": "> 65", "unit": "%"},
      {"measurement": "Activity", "setting": "[32]", "value": "99% and 100%"}
    ]}
  ]
}
